The experiment deals with T1, human RXFP1 (Homo sapiens, UniProt Q9HBX9).
T1 construct: expressed in transfected cells
T1 sequence (Q9HBX9 1-757): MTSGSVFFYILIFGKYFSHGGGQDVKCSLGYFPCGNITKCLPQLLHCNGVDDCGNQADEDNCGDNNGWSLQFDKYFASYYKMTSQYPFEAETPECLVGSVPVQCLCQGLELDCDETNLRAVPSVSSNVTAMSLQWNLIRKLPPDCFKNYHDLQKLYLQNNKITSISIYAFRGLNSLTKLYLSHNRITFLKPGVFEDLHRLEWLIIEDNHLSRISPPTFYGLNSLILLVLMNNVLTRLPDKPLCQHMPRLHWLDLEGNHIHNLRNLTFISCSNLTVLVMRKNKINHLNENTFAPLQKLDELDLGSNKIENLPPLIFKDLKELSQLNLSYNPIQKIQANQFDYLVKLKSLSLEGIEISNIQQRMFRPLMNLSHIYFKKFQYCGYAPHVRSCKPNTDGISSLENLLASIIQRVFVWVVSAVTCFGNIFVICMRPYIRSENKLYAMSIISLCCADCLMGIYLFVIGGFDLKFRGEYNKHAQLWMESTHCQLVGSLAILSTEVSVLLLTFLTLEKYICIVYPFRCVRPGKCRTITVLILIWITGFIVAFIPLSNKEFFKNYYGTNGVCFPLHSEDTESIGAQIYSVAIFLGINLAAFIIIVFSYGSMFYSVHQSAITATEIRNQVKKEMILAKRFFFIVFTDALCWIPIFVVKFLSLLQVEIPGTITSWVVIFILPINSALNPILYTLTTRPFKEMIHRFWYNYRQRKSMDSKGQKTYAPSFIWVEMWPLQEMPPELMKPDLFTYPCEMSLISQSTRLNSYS
Nature of the experiment: hRXFP1 HEK293 cAMP assay (HTRF). The format is cell-based. The settings on record: HEK293 cells stably expressing human RXFP1; 30 min at rt; intracellular cAMP by HTRF. In short, it runs like this:
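Agonism is measured as cAMP by HTRF, quantified from a standard curve via the 665/590 nm ratio and fitted with a four-parameter logistic equation. Compounds (0.010 nM to 50 μM final, 2% DMSO) were applied for 30 min at rt to human RXFP1-expressing HEK293 cells in assay buffer containing 0.5 mM IBMX.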
On the technique in general: cAMP levels reflect the balance of adenylyl cyclase and phosphodiesterase activity.

Broadly, the EC50 is the midpoint of the concentration-response curve. Higher therefore signals lower potency in that assay. `COc1ccc(S(=O)(=O)N2CCC[C@@H](NCC(N)=O)C2)cc1C(=O)Nc1c(C(=O)Nc2ccc(F)c(C(F)(F)F)c2)sc2cc(C(F)(F)F)ccc12` [Example 31] displayed an EC50 of 3280 nM. To `COc1ccc(-c2cc(C(=O)O)ccc2F)cc1C(=O)Nc1c(C(=O)Nc2ccc(F)c(C(F)(F)F)c2)sc2cc(C)ccc12` [Example 215, 6-fluoro-3′-((2-((4-fluoro-3-(trifluoromethyl)phenyl)carbamoyl)-6-methylbenzo[b]thiophen-3-yl)carbamoyl)-4′-methoxy-[1,1′-biphenyl]-3-carboxylic acid] belongs 1430 nM; to `COc1ccc(-c2ccc(F)c(C(=O)O)c2)cc1C(=O)Nc1c(C(=O)Nc2ccc(F)c(C(F)(F)F)c2)sc2cc(C(F)(F)F)ccc12` [Example 13, 4-fluoro-3′-((2-((4-fluoro-3-(trifluoromethyl)phenyl)carbamoyl)-6-(trifluoromethyl)benzo[b]thiophen-3-yl)carbamoyl)-4′-methoxy-[1, 1′-biphenyl]-3-carboxylic acid], 87 nM. In turn, `COc1ccc(C2CCN(C3COC3)C2)cc1C(=O)Nc1c(C(=O)Nc2ccc(F)c(C(F)(F)F)c2)sc2cc(C(F)(F)F)ccc12` (stereo not drawn) [Example 142, N-(4-fluoro-3-(trifluoromethyl)phenyl)-3-(2-methoxy-5-(1-(oxetan-3-yl)pyrrolidin-3-yl)benzamido)-6-(trifluoromethyl) benzo[b] thiophene-2-carboxamide] gave an EC50 of 619 nM. For the compound `COC(=O)C(=O)N1CCCC(c2ccc(OC)c(C(=O)Nc3c(C(=O)Nc4ccc(F)c(C(F)(F)F)c4)sc4cc(C(F)(F)F)ccc34)c2)C1` (stereo not drawn) [Example 80, methyl 2-(3-(3-((2-((4-fluoro-3-(trifluoromethyl)phenyl)carbamoyl)-6-(trifluoromethyl)benzo[b]thiophen-3-yl)carbamoyl)-4-methoxyphenyl)piperidin-1-yl)-2-oxoacetate], the EC50 amounted to 237 nM. This EC50 lies about 2.6-fold lower than the previous one. `COc1ccc(C2CCCC(C)(O)C2)cc1C(=O)Nc1c(C(=O)Nc2ccc(F)c(C(F)(F)F)c2)sc2cc(C(F)(F)F)ccc12` (single isomer, unassigned) [Example 34, N-(4-fluoro-3-(trifluoromethyl)phenyl)-3-(5-(3-hydroxy-3-methylcyclohexyl)-2-methoxybenzamido)-6-(trifluoromethyl)benzo[b]thiophene-2-carboxamide] came in with an EC50 of 850 nM.

Compound `COc1ccc(C2CC2C(=O)O)cc1C(=O)Nc1c(C(=O)Nc2ccc(F)c(C(F)(F)F)c2)sc2cc(C(F)(F)F)ccc12` (single isomer, unassigned) [Example 47, 2-(3-((2-((4-fluoro-3-(trifluoromethyl)phenyl)carbamoyl)-6-(trifluoromethyl)benzo[b]thiophen-3-yl)carbamoyl)-4-methoxyphenyl) cyclopropane-1-carboxylic acid] gave an EC50 of 1060 nM. Turning to `COc1ccc(-c2cc(C(C)(C)O)on2)cc1C(=O)Nc1c(C(=O)Nc2ccc(F)c(C(F)(F)F)c2)sc2cc(C(F)(F)F)ccc12` [Example 276, N-(4-fluoro-3-(trifluoromethyl)phenyl)-3-(5-(5-(2-hydroxypropan-2-yl)isoxazol-3-yl)-2-methoxy-benzamido)-6-(trifluoromethyl) benzo[b] thiophene-2-carboxamide], the response was half-maximal at 204 nM (EC50). Turning to `COc1ccc(C2CCN(C(=O)CC(C)(C)O)C2)cc1C(=O)Nc1c(C(=O)Nc2ccc(F)c(C(F)(F)F)c2)sc2cc(C(F)(F)F)ccc12` (stereo not drawn) [Example 136, N-(4-fluoro-3-(trifluoromethyl)phenyl)-3-(5-(1-(3-hydroxy-3-methylbutanoyl)pyrrolidin-3-yl)-2-methoxy-benzamido)-6-(trifluoromethyl) benzo[b] thiophene-2-carboxamide], the EC50 is 514 nM.

These data come from US20260265233A1, “BENZOTHIOPHENE DERIVATIVES AS RXFP1 AGONISTS” (BRISTOL-MYERS SQUIBB COMPANY, priority 2021, published 2026).
